Laboratory results reported in patent US20260364030A1, “NOVEL SELECTIVE INHIBITORS OF LYSYL OXIDASES” (Syntara Limited, priority 2022, published 2026).

Key:
Format in all cases: biochemical
LOXL1 [1] = target: T1, LOXL1 (Homo sapiens, UniProt Q08397); test: Jump dilution experiment, sustained inhibition of LOXL1; details: for LOXL1 enzyme activity recovery: at 21-30 min after jump dilution, 10×IC50, 40 min preincubation at 37 °C; for Sustained inhibition of LOXL1: jump dilution, 21-30 min
T1 sequence (Q08397 96-574): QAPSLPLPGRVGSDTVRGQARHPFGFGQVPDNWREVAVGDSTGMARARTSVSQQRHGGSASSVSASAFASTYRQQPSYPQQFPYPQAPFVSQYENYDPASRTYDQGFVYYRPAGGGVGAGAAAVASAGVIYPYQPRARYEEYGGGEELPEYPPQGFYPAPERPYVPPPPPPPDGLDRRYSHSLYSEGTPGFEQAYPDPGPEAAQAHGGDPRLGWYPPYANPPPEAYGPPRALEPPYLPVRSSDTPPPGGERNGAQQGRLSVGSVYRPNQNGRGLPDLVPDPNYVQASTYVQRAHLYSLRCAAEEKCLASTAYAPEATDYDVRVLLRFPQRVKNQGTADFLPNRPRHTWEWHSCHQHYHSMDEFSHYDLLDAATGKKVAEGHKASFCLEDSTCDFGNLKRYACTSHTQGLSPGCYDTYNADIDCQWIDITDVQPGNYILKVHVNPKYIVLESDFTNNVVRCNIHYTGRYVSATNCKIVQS
Experimental: Jump Dilution experiment: The assay was developed using a 96 well format and the starting enzyme concentration was set 100 times higher than for the inhibition studies. The enzyme was incubated for 40 minutes at 37 °C in presence of 10×IC50 concentrations of the test inhibitor. After the incubation, the mixture was diluted 50x in assay buffer, followed by a further 2× dilution in Amplex Red-horseradish peroxidase-putrescine reaction mix (as for Example 2) prior to the fluorescence measurement. Results were expressed in % recovery of the signal at 21-30 min by comparison with non-inhibited controls. LOXL1 is used as a surrogate for LOX owing to similar pharmacological behaviour.

Bovine LOX = target: T2, Bovine LOX (Bos taurus, UniProt P33072); test: LOX inhibition, hydrogen peroxide Amplex Red oxidation assay
T2 sequence (P33072 170-418): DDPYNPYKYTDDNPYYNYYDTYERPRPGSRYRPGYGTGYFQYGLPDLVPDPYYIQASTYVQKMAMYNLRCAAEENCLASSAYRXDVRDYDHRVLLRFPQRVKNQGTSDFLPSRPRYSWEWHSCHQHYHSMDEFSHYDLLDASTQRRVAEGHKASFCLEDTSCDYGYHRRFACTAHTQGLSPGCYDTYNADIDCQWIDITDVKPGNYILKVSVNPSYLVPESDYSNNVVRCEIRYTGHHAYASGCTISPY
Experimental: LOX and LOXL protein family members can be acquired as recombinant active proteins from commercial sources, or extracted from animal tissues like bovine aorta, tendons, pig skin; or prepared from cell cultures. The inhibitory effects of the compounds of the present invention were tested against the given LOX or LOXL preparation using a method based on the detection of hydrogen peroxide with an Amplex Red oxidation assay [Zhou et al, 1997]. The assay was developed using either 384 or 96 well format. Briefly, in a standard black, clear bottom 384 well plate assay 25 µL of a dilution of any of the isoenzymes and orthologues in 1.2 M urea, 50 mM sodium borate buffer (pH 8.2) were added into each well in the presence of […] and 0.5 mM pargyline (to inhibit SSAO and MAO-B and MAO-A, respectively; not necessary if the enzyme is from a recombinant or purified form). […] of a reaction mixture containing twice the KM concentration of putrescine (Sigma Aldrich, e.g. 20 mM for LOX and LOXL1 or 10 mM for LOXL2 and 4 mM for LOXL3 and LOXL4), 120 µM Amplex Red (Thermo Fisher Scientific) and 1.5 U/mL horseradish peroxidase (Sigma Aldrich) prepared in 1.2 M urea, 50 mM sodium borate buffer (pH 8.2) were then added to the corresponding wells. The above volumes were doubled in the case of 96 wells plate. The fluorescence (RFU) was read every 2.5 min for 30 min at 37 °C, excitation 544 nm and emission 590 (Optima; BMG labtech). The slope/min of the kinetics for each well was calculated using MARS data analysis software (BMG labtech) and this value was used to deduce the IC50 value (Dotmatics). The ability of the inventive compounds to inhibit the amine oxidase activity of LOX and other family members is shown in Table 5.

LOXL1 [2] = target: T1, LOXL1; test: LOXL1 inhibition, Amplex Red oxidation assay; details: 30 min incubation with enzyme at 37 °C
Experimental: LOX and LOXL protein family members can be acquired as recombinant active proteins from commercial sources, or extracted from animal tissues like bovine aorta, tendons, pig skin; or prepared from cell cultures. The inhibitory effects of the compounds of the present invention were tested against the given LOX or LOXL preparation using a method based on the detection of hydrogen peroxide with an Amplex Red oxidation assay [Zhou et al, 1997]. The assay was developed using either 384 or 96 well format. Briefly, in a standard black, clear bottom 384 well plate assay 25 µL of a dilution of any of the isoenzymes and orthologues in 1.2 M urea, 50 mM sodium borate buffer (pH 8.2) were added into each well in the presence of […] and 0.5 mM pargyline (to inhibit SSAO and MAO-B and MAO-A, respectively; not necessary if the enzyme is from a recombinant or purified form). Test compounds were dissolved in DMSO and tested in a Concentration Response Curve (CRC) with 11 data points, typically in the micromolar or nanomolar range after incubation with the enzyme for 30 min at 37 °C. […] The fluorescence (RFU) was read every 2.5 min for 30 min at 37 °C, excitation 544 nm and emission 590 (Optima; BMG labtech). The slope/min of the kinetics for each well was calculated using MARS data analysis software (BMG labtech) and this value was used to deduce the IC50 value (Dotmatics). […]

[3] = 30 min incubation with enzyme at 37 °C

| SMILES | LOXL1 enzyme activity recovery (LOXL1 [1]) | Sustained inhibition of LOXL1 (LOXL1 [1]) | IC50 (Bovine LOX; [3]) | IC50 (LOXL1 [2]) | IC50 (Bovine LOX; 2 h incubation with enzyme at 37 °C) |
| --- | --- | --- | --- | --- | --- |
| N#CCCN [BAPN, β-aminopropionitrile, reference compound] | 0.3% | sustained inhibition | 2.3 µM | 2.5 µM |  |
| NC/C(=C\F)CS(=O)(=O)c1ccccc1 [Compound 1, (E)-3-fluoro-2-((phenylsulfonyl)methyl)prop-2-en-1-amine] | 2.5% | sustained inhibition | 10 µM | 13.2 µM | < 5 µM |
